Assay results as given in the NIST ThermoML archive (doi:10.1021/je500980a).

Conditions: Liquid

CCCCCCCCCC(=O)OCC [ethyl decanoate]
viscosity [mPa·s]
Conditions	293.15 K	313.15 K	333.15 K	353.15 K
101.3 kPa, Falling or rolling sphere viscometry	2.34	1.59	1.16	0.888
101.3 kPa, Quartz crystal resonator	2.33	1.59	1.16	0.893
10000 kPa, Quartz crystal resonator	2.59	1.77	1.28	1
20000 kPa, Falling or rolling sphere viscometry	2.94	1.96	1.44	1.1
20000 kPa, Quartz crystal resonator	2.91	1.97	1.43	1.1
30000 kPa, Quartz crystal resonator	3.22	2.18	1.59	1.21
40000 kPa, Falling or rolling sphere viscometry	3.62	2.38	1.74	1.32
40000 kPa, Quartz crystal resonator	3.57	2.39	1.74	1.32
50000 kPa, Quartz crystal resonator	3.95	2.62	1.87	1.45
60000 kPa, Falling or rolling sphere viscometry	4.4	2.85	2.06	1.56
60000 kPa, Quartz crystal resonator	4.35	2.86	2.07	1.58
70000 kPa, Quartz crystal resonator	4.8	3.14	2.2	1.72
80000 kPa, Falling or rolling sphere viscometry	5.29	3.37	2.42	1.82
80000 kPa, Quartz crystal resonator	5.23	3.44	2.37	1.84
90000 kPa, Quartz crystal resonator	5.74	3.72	2.59	1.98
100000 kPa, Falling or rolling sphere viscometry	6.3	3.96	2.81	2.1
100000 kPa, Quartz crystal resonator	6.25	4.04	2.82	2.13
120000 kPa, Falling or rolling sphere viscometry	7.45	4.62	3.23	2.4
120000 kPa, Quartz crystal resonator	7.46	4.69	3.27	2.42
140000 kPa, Falling or rolling sphere viscometry	8.78	5.35	3.7	2.73
140000 kPa, Quartz crystal resonator	8.83	5.52	3.72	2.74
160000 kPa, Falling or rolling sphere viscometry	10.3	6.18	4.22	3.08
160000 kPa, Quartz crystal resonator	10.7	6.27	4.25	3.14
180000 kPa, Falling or rolling sphere viscometry	12.06	7.11	4.78	3.46
180000 kPa, Quartz crystal resonator	12.4	7.31	4.7	3.53
200000 kPa, Falling or rolling sphere viscometry	14.1	8.16	5.41	3.88
200000 kPa, Quartz crystal resonator	14.5	8.36	5.36	3.98

CCCCCCCCCC(=O)OC [methyl decanoate]
viscosity [mPa·s]
Conditions	293.15 K	313.15 K	333.15 K	353.15 K
101.3 kPa, Falling or rolling sphere viscometry	2.15	1.46	1.07	0.825
101.3 kPa, Quartz crystal resonator	2.13	1.5	1.08	0.837
10000 kPa, Quartz crystal resonator	2.36	1.66	1.19	0.927
20000 kPa, Falling or rolling sphere viscometry	2.66	1.83	1.32	1.01
20000 kPa, Quartz crystal resonator	2.62	1.84	1.3	1.02
30000 kPa, Quartz crystal resonator	2.92	2	1.43	1.12
40000 kPa, Falling or rolling sphere viscometry	3.24	2.21	1.58	1.21
40000 kPa, Quartz crystal resonator	3.21	2.2	1.55	1.22
50000 kPa, Quartz crystal resonator	3.53	2.39	1.68	1.31
60000 kPa, Falling or rolling sphere viscometry	3.91	2.65	1.86	1.42
60000 kPa, Quartz crystal resonator	3.87	2.59	1.81	1.42
70000 kPa, Quartz crystal resonator	4.22	2.82	1.97	1.53
80000 kPa, Falling or rolling sphere viscometry	4.67	3.12	2.17	1.64
80000 kPa, Quartz crystal resonator	4.61	3.06	2.11	1.63
90000 kPa, Quartz crystal resonator	5.02	3.29	2.26	1.75
100000 kPa, Falling or rolling sphere viscometry	5.53	3.63	2.5	1.88
100000 kPa, Quartz crystal resonator	5.47	3.56	2.43	1.87
120000 kPa, Falling or rolling sphere viscometry	6.52	4.21	2.86	2.13
120000 kPa, Quartz crystal resonator	6.47	4.1	2.76	2.13
140000 kPa, Falling or rolling sphere viscometry	7.66	4.85	3.26	2.41
140000 kPa, Quartz crystal resonator	7.82	4.75	3.19	2.41
160000 kPa, Falling or rolling sphere viscometry	8.96	5.56	3.7	2.71
160000 kPa, Quartz crystal resonator	9.17	5.43	3.62	2.72
180000 kPa, Falling or rolling sphere viscometry	–	6.35	4.18	3.03
180000 kPa, Quartz crystal resonator	–	6.29	4.07	3.05
200000 kPa, Falling or rolling sphere viscometry	–	7.24	4.7	3.38
200000 kPa, Quartz crystal resonator	–	7.13	4.54	3.41
